From patent EP2738172A1 (Almirall, S.A., priority 2012, dated 2014)

Assays:
[1] = tested on: Jurkat E6-1 cells; assay: fluorescent calcium flux assay (FLIPR, thapsigargin store depletion); format: cell-based; conditions: Homo sapiens, Thapsigargin 10µM, 2mM final calcium concentration, FLIPR Calcium 5 dye, read-out: Ca^2+ flux IC50
Method: fluorescent calcium flux assay
Jurkat E6-1 cells were obtained from ATCC (number TIB-152™) and maintained as ATCC recommend; in medium RPMI-1640 with 10% FBS at 37°C and 5% CO2.
Before the assay, Jurkat cells were grown at a density of 2 millions cells/ml in cell culture media (RPMI with 10% FBS) in a T-175 flask at 37°C and 5% CO2. The day of the assay, cells were harvested by centrifugation (5 minutes at 1500 rpm) and the pellet were suspended in Ca^2+ free assay buffer (HBSS w/o Ca^2+ and Mg^2+, 20mM Hepes and 1 mM MgCl2, pH 7.4) at a density of 5 million cells/ml.
Calcium depletion was initiated by the addition to the cell suspension of Thapsigarguin at a final assay concentration of 10µM. 20µl of the cellular suspension containing Thapsigargin (100.000 cells/well) were plated into 384 well plates (corning 3711) and incubated at RT for 15 minutes.
Test compounds were diluted in DMSO 100% to get a 10^-2M stock solution and serial dilutions 1/3 were performed in the same solvent. Then, 20µl of test compounds, diluted 75 times in Ca^2+ free assay buffer, were added to the cells and incubated at RT for 1h.
Once this incubation was completed, 5 µl of dye solution (FLIPR Calcium 5 Express Kit, Molecular Devices), prepared as Molecular Devices recommend, were added into the assay plates followed by an extra incubation period of 1 hour at room temperature. After the second incubation period, assay plates were placed into the FLIPR Tetra from Molecular Devices. Fluorescence was measured at a wavelength of 525nm after the dye excitation at 485nm. The initial baseline was measured during 20 seconds, and then 8µl of a 13mM Calcium solution in assay buffer were added (2mM final calcium concentration) except for basal wells, where assay buffer without calcium was added. At this time, changes in the cellular fluorescent were measured for an extra 80 seconds.
Peak and base line were taken for the calculation of the ratio (Peak/Base Line). Total, basal and compound well ratio values were used to calculate %Inhibition.

[2] = tested on: Jurkat E6-1 cells; assay: In vitro assay of cytokine release from T cells (IL-2 ELISA); format: cell-based; conditions: Homo sapiens, Jurkat cells stimulated with PHA 20 µg/ml, 20 hours, secreted IL-2 by ELISA, read-out: Jurkat IL2 IC50
Method: In vitro assay of cytokine release from T cells
Jurkat E6-1 cells were obtained from American Type Culture Collection (ATCC) and maintained in complete medium with 10% fetal bovine serum (FBS) at 37°C/5%CO2. Cells were plated in 100 µL of Dubelcco's Modified Eagle Medium (DMEM) with 1% FBS in a 96 well plate at a density of 1x10^6 cells/well and 50 µL of test compound was added. Cells were then stimulated by the addition of 50 µL of phytohemagglutinin (PHA) (final concentration 20 µg/ml) and incubated at 37°C/5%CO2 for 20 hours. On the following day, the supernatants were collected and assayed for IL-2 levels by ELISA according to the manufacturer's protocols. The IC50 value was calculated as the concentration at which 50% of secreted IL-2 in vehicle is inhibited.

Row | SMILES | IC50 [1] [nM] | IC50 [2] [nM]
1 | Cn1nc(C(F)(F)F)cc1-c1cc2cc(-c3c(F)cccc3Cl)[nH]c2cn1 | 640 | 860
2 | COc1cc(C)c(-c2cnc3[nH]c(-c4c(F)cccc4Cl)cc3c2)cn1 [Ex. 1, 2-(2-Chloro-6-fluorophenyl)-5-(6-methoxy-4-methylpyridin-3-yl)-1H-pyrrolo[2,3-b]pyridine] | 71 | 40
3 | COc1cc(C)c(-c2cnc3[nH]c(-c4c(F)cccc4Cl)cc3n2)cn1 [Ex. 2, 6-(2-Chloro-6-fluorophenyl)-2-(6-methoxy-4-methylpyridin-3-yl)-5H-pyrrolo[2,3-b]pyrazine] | 357 | 100
4 | Cc1cc(S(=O)(=O)N(C)C)ccc1-c1cnc2[nH]c(-c3c(F)cccc3Cl)cc2n1 [Ex. 8, 4-[6-(2-chloro-6-fluorophenyl)-5H-pyrrolo[2,3-b]pyrazin-2-yl]-N,N,3-trimethylbenzenesulfonamide] | 800 | 41
5 | COc1cc(C)c(-c2cnc3[nH]c(-c4c(F)cc(OCCCO)cc4F)cc3c2)cn1 [Ex. 9, 3-{3,5-difluoro-4-[5-(6-methoxy-4-methylpyridin-3-yl)-1H-pyrrolo[2,3-b]pyridin-2-yl]phenoxy}propan-1-ol] | 370 | 210
6 | Fc1cccc(Cl)c1-c1cc2cc(-c3cc4c(cc3Cl)OC(F)(F)O4)cnc2[nH]1 [Ex. 13, 5-(6-Chloro-2,2-difluoro-1,3-benzodioxol-5-yl)-2-(2-chloro-6-fluorophenyl)-1H-pyrrolo[2,3-b]pyridine] | 120 | 56
7 | Cn1nc(C(F)(F)F)cc1-c1ccc2[nH]c(-c3c(F)cccc3Cl)cc2n1 [Ex. 14, 2-(2-Chloro-6-fluorophenyl)-5-[1-methyl-3-(trifluoromethyl)-1H-pyrazol-5-yl]-1H-pyrrolo[3,2-b]pyridine] | 53 | 36
8 | Cn1nc(C(F)(F)F)cc1-c1ccc2[nH]c(C3CCCCC3)cc2n1 [Ex. 16, 2-Cyclohexyl-5-[1-methyl-3-(trifluoromethyl)-1H-pyrazol-5-yl]-1H-pyrrolo[3,2-b]pyridine] | 390 | 130
9 | FC(F)Oc1cc(C(F)(F)F)nn1-c1ccc2[nH]c(C3CCCCC3)cc2n1 [Ex. 30, 2-Cyclohexyl-5-[5-(difluoromethoxy)-3-(trifluoromethyl)-1H-pyrazol-1-yl]-1H-pyrrolo[3,2-b]pyridine] | 360 | 110
10 | CNS(=O)(=O)c1ccc(-c2cnc3[nH]c(-c4c(F)cccc4Cl)cc3n2)c(C)c1 [Ex. 69, 4-(6-(2-Chloro-6-fluorophenyl)-5H-pyrrolo[2,3-b]pyrazin-2-yl)-N,3-dimethylbenzenesulfonamide] | 580 | 114
11 | Cc1nc2cc(Cl)c(-c3cnc4[nH]c(-c5c(F)cccc5Cl)cc4c3)cc2o1 [Ex. 73, 5-Chloro-6-(2-(2-chloro-6-fluorophenyl)-1H-pyrrolo[2,3-b]pyridin-5-yl)-2-methylbenzo[d]oxazole] | 88 | 117
